According to US20060223996A1, “IL-12 modulatory compounds” (Synta Pharmaceuticals Corp., priority 2004, published 2006):

System: IL-12
Assay: Human in vitro assay: inhibition of IL-12 production in IFNγ/LPS- or IFNγ/SAC-stimulated human PBMC or THP-1 cells (ELISA)
Type: cell-based
Details: read-out: IC50 Range (representative in vitro IC50 data)
Description: The biological activities of a heterocyclic compound can be evaluated by a number of cell-based assays. One of such assays can be conducted using cells from human peripheral blood mononuclear cells (PBMC) or human monocytic cell line (THP-1). The cells are stimulated with a combination of human interferon-γ (IFNγ) and lipopolysaccharide or a combination of IFNγ and Staphylococcus aureus Cowan I in the presence of a test compound. The level of inhibition of IL-12 production can be measured by determining the amount of p70 by using a sandwich ELISA assay with anti-human IL-12 antibodies. IC50 of the test compound can then be determined. Specifically, PBMC or THP-1 cells are incubated with the test compound. Cell viability was assessed using the bioreduction of MTS [3-(4,5-dimethylthiazol-2-yl)-5-(3-carboxymethoxyphenyl)-2-(4-sulfophenyl)-2H-tetrazolium](Promega, Madison, Wis.).
Human In Vitro Assay. Human PBMC were isolated by centrifugation using Ficoll-Paque (Pharmacia Biotech, Uppsala, Sweden) and prepared in RPMI medium supplemented with 10% fetal calf serum (FCS), 100 U/mL penicillin, and 100 μg/mL streptomycin. PBMC were plated in wells of a 96-well plate at a concentration of 5×10^5 cells/well, and primed by adding IFNγ (30 U/mL) for 22 h and stimulated by adding LPS (1 μg/mL), or by adding IFNγ (100 U/mL) and then stimulated by adding SAC (0.01%). A test pyrimidine compound was dissolved in DMSO, and added to wells of the 96-well plate. The final DMSO concentration was adjusted to 0.25% in all cultures, including the compound-free control. Human THP-1 cells were plated in wells, primed by adding IFNγ (100 U/mL) for 22 h and stimulated by adding SAC (0.025%) in the presence of different concentrations of the pyrimidine compound. Cell-free supernatants were taken 18 h later for measurement of cytokines. Cell viability was assessed using the bioreduction of MTS. Cell survival was estimated by determining the ratio of the absorbance in compound-treated groups versus compound-free control.
The supernatant was assayed for the amount of IL-12p40, IL-12p70, or IL-10 by using a sandwich ELISA with anti-human antibodies, i.e., a Human IL-12 p40 ELISA kit from R&D Systems (Berkeley, Calif.), and a Human IL-12 p70 or IL-10 ELISA kit from Endogen (Cambridge, Mass.). Assays were based on the manufacturer's instructions.
The biological activities of pyrimidine compounds were tested on human PBMC or THP-1 cells.

Structure (SMILES)	IC50 [nM]
Cc1ccc2nc(NC(=O)c3cc(N4CCOCC4)nc(OCCc4ccccn4)n3)sc2c1 [Compound 64, 6-Morpholin-4-yl-2-(2-pyridin-2-yl-ethoxy)-pyrimidine-4-carboxylic acid (6-methyl-benzothiazol-2-yl)-amide]	≥ 1000
COc1ccc(CCOc2cc(C(=O)Nc3cccc(C)c3)cc(N3CCOCC3)n2)cc1OC [Compound 65, 2-[2-(3,4-Dimethoxy-phenyl)-ethoxy]-6-morpholin-4-yl-N-m-tolyl-isonicotinamide]	≥ 1000
Cc1[nH]c2ccc(NC(=O)c3cc(OCCN4CCOCC4)nc(N4CCOCC4)c3)cc2c1C [Compound 66, N-(2,3-Dimethyl-1H-indol-5-yl)-2-morpholin-4-yl-6-(2-morpholin-4-yl-ethoxy)-isonicotinamide]	≥ 1000
Cc1cccc(NC(=O)Nc2cc(N3CCOCC3)nc(OCCc3ccccn3)n2)c1 [Compound 68, 1-[6-Morpholin-4-yl-2-(2-pyridin-2-yl-ethoxy)-pyrimidin-4-yl]-3-m-tolyl-urea]	≥ 1000
Cc1cccc(N(C)C(=O)Nc2cc(N3CCOCC3)nc(OCCc3ccccn3)n2)c1 [Compound 69, 1-Methyl-3-[6-morpholin-4-yl-2-(2-pyridin-2-yl-ethoxy)-pyrimidin-4-yl]-1-m-tolyl-urea]	≥ 1000
Cc1cccc(NC(=O)Nc2nc(OCCc3ccccn3)cc(N3CCOCC3)n2)c1 [Compound 71, 1-[4-Morpholin-4-yl-6-(2-pyridin-2-yl-ethoxy)-pyrimidin-2-yl]-3-m-tolyl-urea]	≥ 1000
O=C(Oc1ccc2[nH]ccc2c1)c1cc(OCCc2ccccn2)nc(N2CCOCC2)n1 [Compound 72, 2-Morpholin-4-yl-6-(2-pyridin-2-yl-ethoxy)-pyrimidine-4-carboxylic acid 1H-indol-5-yl ester]	≥ 1000
O=C(Nc1cc(OCCc2ccccn2)nc(N2CCOCC2)n1)c1ccc2[nH]ccc2c1 [Compound 73, 1H-Indole-5-carboxylic acid [2-morpholin-4-yl-6-(2-pyridin-2-yl-ethoxy)-pyrimidin-4-yl]-amide]	≥ 1000
O=C(Nc1cc(N2CCOCC2)nc(OCCc2ccccn2)n1)c1ccc2[nH]ccc2c1 [Compound 74, 1H-Indole-5-carboxylic acid [6-morpholin-4-yl-2-(2-pyridin-2-yl-ethoxy)-pyrimidin-4-yl]-amide]	≥ 1000
Cc1cccc(C(=O)Nc2nc(OCCc3ccccn3)cc(N3CCOCC3)n2)c1 [Compound 75, 3-Methyl-N-[4-morpholin-4-yl-6-(2-pyridin-2-yl-ethoxy)-pyrimidin-2-yl]-benzamide]	≥ 1000
O=C(Nc1nc(OCCc2ccccn2)cc(N2CCOCC2)n1)c1ccncc1 [Compound 76, N-[4-Morpholin-4-yl-6-(2-pyridin-2-yl-ethoxy)-pyrimidin-2-yl]-isonicotinamide]	≥ 1000
Cc1cc(C(=O)Nc2nc(OCCc3ccccn3)cc(N3CCOCC3)n2)no1 [Compound 77, 5-Methyl-isoxazole-3-carboxylic acid-[4-morpholin-4-yl-6-(2-pyridin-2-yl-ethoxy)-pyrimidin-2-yl]-amide]	≥ 1000
Cc1cccc(NNC(=O)c2cc(OCCc3ccccn3)nc(N3CCOCC3)n2)c1 [Compound 79, 2-Morpholin-4-yl-6-(2-pyridin-2-yl-ethoxy)-pyrimidine-4-carboxylic acid N′-m-tolyl-hydrazide]	≥ 1000
Cc1cccc(NNC(=O)c2cc(OCCN3CCOCC3)nc(N3CCOCC3)c2)c1 [Compound 82, 2-Morpholin-4-yl-6-(2-morpholin-4-yl-ethoxy)-isonicotinic acid N′-m-tolyl-hydrazide]	≥ 1000
Cc1cccc(OC(=O)Nc2cc(OCCc3ccccn3)nc(N3CCOCC3)n2)c1 [Compound 83, [2-Morpholin-4-yl-6-(2-pyridin-2-yl-ethoxy)-pyrimidin-4-yl]-carbamic acid m-tolyl ester]	≥ 1000
Cc1[nH]c2ccc(NCc3cc(OCCc4ccccn4)nc(N4CCOCC4)n3)cc2c1C [Compound 84, (2,3-Dimethyl-1H-indol-5-yl)-[2-morpholin-4-yl-6-(2-pyridin-2-yl-ethoxy)-pyrimidin-4-ylmethyl]-amine]	< 1000
Cc1cccc(NC(=O)C(=O)Nc2cc(OCCc3ccccn3)nc(N3CCOCC3)n2)c1 [Compound 85, N-[2-Morpholin-4-yl-6-(2-pyridin-2-yl-ethoxy)-pyrimidin-4-yl]-N′-m-tolyl-oxalamide]	≥ 1000
O=C(Nc1cccc(O)c1)C(=O)Nc1cc(OCCc2ccccn2)nc(N2CCOCC2)n1 [Compound 86, N-(3-Hydroxy-phenyl)-N′-[2-morpholin-4-yl-6-(2-pyridin-2-yl-ethoxy)-pyrimidin-4-yl]-oxalamide]	≥ 1000
O=C(Nc1cccc(O)c1)C(=O)Nc1cc(N2CCOCC2)nc(OCCc2ccccn2)n1 [Compound 87, N-(3-Hydroxy-phenyl)-N′-[6-morpholin-4-yl-2-(2-pyridin-2-yl-ethoxy)-pyrimidin-4-yl]-oxalamide]	≥ 1000
Cc1cccc(OC(=O)Nc2cc(N3CCOCC3)nc(OCCc3ccccn3)n2)c1 [Compound 88, [6-Morpholin-4-yl-2-(2-pyridin-2-yl-ethoxy)-pyrimidin-4-yl]-carbamic acid m-tolyl ester]	≥ 1000
Cc1[nH]c2ccc(NC(=O)c3cc(NCC(=O)N4CCOCC4)nc(N4CCOCC4)n3)cc2c1C [Compound 89, 2-Morpholin-4-yl-6-(2-morpholin-4-yl-2-oxo-ethylamino)-pyrimidine-4-carboxylic acid (2,3-dimethyl-1H-indol-5-yl)-amide]	< 1000

Continued, values first:

IC50 [nM]	Structure (SMILES)
≥ 1000	Cc1cccc(NC(=O)c2cc(N3CCOCC3)nc(OCCc3ccccn3)n2)c1 [Compound 62, 6-Morpholin-4-yl-2-(2-pyridin-2-yl-ethoxy)-pyrimidine-4-carboxylic acid m-tolylamide]
≥ 1000	Cc1[nH]c2ccc(NC(=O)c3cc(N4CCOCC4)nc(OCCc4ccccn4)n3)cc2c1C [Compound 63, 6-Morpholin-4-yl-2-(2-pyridin-2-yl-ethoxy)-pyrimidine-4-carboxylic acid (2,3-dimethyl-1H-indol-5-yl)-amide]
< 1000	Cc1cccc(NC(=O)Nc2cc(OCCc3ccccn3)nc(N3CCOCC3)n2)c1 [Compound 67, 1-[2-Morpholin-4-yl-6-(2-pyridin-2-yl-ethoxy)-pyrimidin-4-yl]-3-m-tolyl-urea]
< 1000	Cc1cccc(NNC(=O)c2cc(N3CCOCC3)nc(OCCc3ccccn3)n2)c1 [Compound 78, 6-Morpholin-4-yl-2-(2-pyridin-2-yl-ethoxy)-pyrimidine-4-carboxylic acid N′-m-tolyl-hydrazide]
< 1000	Cc1cccc(NNC(=O)c2cc(N3CCOCC3)nc(OCCN3CCOCC3)n2)c1 [Compound 80, 6-Morpholin-4-yl-2-(2-morpholin-4-yl-ethoxy)-pyrimidine-4-carboxylic acid N′-m-tolyl-hydrazide]
< 1000	Cc1ccc(NNC(=O)c2cc(N3CCOCC3)nc(OCCN3CCOCC3)n2)cc1C [Compound 81, 6-Morpholin-4-yl-2-(2-morpholin-4-yl-ethoxy)-pyrimidine-4-carboxylic acid N′-(3,4-dimethyl-phenyl)-hydrazide]
< 1000	Cc1[nH]c2ccc(NC(=O)c3cc(N4CCN(c5ccccn5)CC4)nc(N4CCOCC4)n3)cc2c1C [Compound 90, 2-Morpholin-4-yl-6-(4-pyridin-2-yl-piperazin-1-yl)-pyrimidine-4-carboxylic acid (2,3-dimethyl-1H-indol-5-yl)-amide]
< 1000	Cc1[nH]c2ccc(NC(=O)c3cc(N(CCO)CCO)nc(N4CCOCC4)n3)cc2c1C [Compound 91, 6-[Bis-(2-hydroxy-ethyl)-amino]-2-morpholin-4-yl-pyrimidine-4-carboxylic acid (2,3-dimethyl-1H-indol-5-yl)-amide]
< 1000	CCCCN(CCCC)c1cc(C(=O)Nc2ccc3[nH]c(C)c(C)c3c2)nc(N2CCOCC2)n1 [Compound 92, 6-Dibutylamino-2-morpholin-4-yl-pyrimidine-4-carboxylic acid (2,3-dimethyl-1H-indol-5-yl)-amide]
< 1000	CCN(CC)c1cc(C(=O)Nc2ccc3[nH]c(C)c(C)c3c2)nc(N2CCOCC2)n1 [Compound 93, 6-Diethylamino-2-morpholin-4-yl-pyrimidine-4-carboxylic acid (2,3-dimethyl-1H-indol-5-yl)-amide]
< 1000	Cc1[nH]c2ccc(NC(=O)c3cc(N4CCN(CCO)CC4)nc(N4CCOCC4)n3)cc2c1C [Compound 94, 6-[4-(2-Hydroxy-ethyl)-piperazin-1-yl]-2-morpholin-4-yl-pyrimidine-4-carboxylic acid (2,3-dimethyl-1H-indol-5-yl)-amide]
